Measured values from US10703756B2, “Pyrrolo[2,3-D]pyrimidinyl, pyrrolo[2,3-B]pyrazinyl, pyrrolo[2,3-B]pyridinyl acrylamides and epoxides thereof” (Pfizer Inc., priority 2015, dated 2020).

Experiments:
[1] = biological target: T1, JAK3 enzyme (Homo sapiens, UniProt P52333); assay: JAK Caliper Enzyme Assay at 4 μM ATP; assay type: biochemical
T1 sequence (P52333 1-1124): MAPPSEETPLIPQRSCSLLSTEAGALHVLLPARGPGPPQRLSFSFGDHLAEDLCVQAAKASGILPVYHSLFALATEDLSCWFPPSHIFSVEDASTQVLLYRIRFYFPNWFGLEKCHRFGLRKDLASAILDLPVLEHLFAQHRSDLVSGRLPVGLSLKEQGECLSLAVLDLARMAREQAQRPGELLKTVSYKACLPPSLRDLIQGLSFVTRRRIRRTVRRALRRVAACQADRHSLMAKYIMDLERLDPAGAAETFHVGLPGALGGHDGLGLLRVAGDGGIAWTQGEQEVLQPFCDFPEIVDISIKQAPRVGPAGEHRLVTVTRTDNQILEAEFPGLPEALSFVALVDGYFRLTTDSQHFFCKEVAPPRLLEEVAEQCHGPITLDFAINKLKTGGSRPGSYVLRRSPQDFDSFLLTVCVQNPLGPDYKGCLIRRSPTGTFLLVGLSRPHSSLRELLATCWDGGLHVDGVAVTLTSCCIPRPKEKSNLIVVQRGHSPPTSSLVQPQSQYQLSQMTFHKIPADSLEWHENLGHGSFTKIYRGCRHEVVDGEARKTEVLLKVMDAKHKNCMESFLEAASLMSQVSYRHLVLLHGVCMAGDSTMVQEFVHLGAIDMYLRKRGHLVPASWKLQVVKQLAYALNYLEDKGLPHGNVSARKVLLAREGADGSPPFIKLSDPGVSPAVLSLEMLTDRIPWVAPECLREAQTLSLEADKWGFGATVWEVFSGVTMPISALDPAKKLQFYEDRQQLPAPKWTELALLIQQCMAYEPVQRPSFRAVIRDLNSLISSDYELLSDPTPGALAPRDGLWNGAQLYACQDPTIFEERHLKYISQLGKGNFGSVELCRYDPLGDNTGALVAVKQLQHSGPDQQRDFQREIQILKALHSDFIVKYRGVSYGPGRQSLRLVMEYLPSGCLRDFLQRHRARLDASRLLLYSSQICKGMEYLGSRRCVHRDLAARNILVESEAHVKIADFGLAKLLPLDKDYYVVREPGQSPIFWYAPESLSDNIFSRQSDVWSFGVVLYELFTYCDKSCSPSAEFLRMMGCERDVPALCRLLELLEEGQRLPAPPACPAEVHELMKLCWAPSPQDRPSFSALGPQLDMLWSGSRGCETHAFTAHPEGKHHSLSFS
Method in brief: (§1)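 Test compounds were diluted in DMSO as an 11-point half-log series from a 600 μM top concentration (DMSO series, not final assay level). Enzyme amount and incubation time were set per enzyme prep to reach 20%-30% phosphorylation. Phosphorylated and unphosphorylated peptide were resolved by microfluidic separation.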

[2] = biological target: T1, JAK3 enzyme; assay: JAK Caliper Enzyme Assay at 1 mM ATP; assay type: biochemical
Method in brief: as §1

Row | Structure (SMILES) | IC50 [1] | IC50 [2]
1 | C=CC(=O)N1CCC(Oc2cnc3[nH]cc(-c4ncnn4C)c3n2)CC1 [Example 122, 1-(4-{[7-(1-Methyl-1H-1,2,4-triazol-5-yl)-5H-pyrrolo[2,3-b]pyrazin-2-yl}oxy)piperidin-1-yl]prop-2-en-1-one] | 8.97 nM | 1470 nM
2 | C=CC(=O)N1CCN(c2cnc3[nH]cc(C(=O)N[C@H](C)COC)c3n2)CC1(C)COC (stereo partly drawn) [Example 63, 2-(4-acryloyl-3-(methoxymethyl)-3-methylpiperazin-1-yl)-N-((R)-1-methoxypropan-2-yl)-5H-pyrrolo[2,3-b]pyrazine-7-carboxamide] | 2.44 nM | 379 nM
3 | C=CC(=O)N1CC(Nc2cnc3[nH]cc(C(=O)NCCCC(F)(F)F)c3n2)C2(CC2)C1 (centres unmarked) [Example 249, 2-[(5-acryloyl-5-azaspiro[2.4]hept-7-yl)amino]-N-(4,4,4-trifluorobulyl)-5H-pyrrolo[2,3-b]pyrazine-7-carboxamide] | 75.3 nM | > 10000 nM
4 | C=CC(=O)N1C[C@H](Nc2cnc3[nH]cc(C(=O)NCC)c3n2)[C@H](C2CC2)C1 [Example 261, 2-{[(3R,4R)-1-acryloyl-4-cyclopropylpyrrolidin-3-yl]amino}-N-ethyl-5H-pyrrolo[2,3-b]pyrazine-7-carboxamide] | 259 nM | > 10000 nM
5 | C=CC(=O)N1CCN(c2cnc3[nH]cc(C(=O)NC4CC(F)(F)C4)c3n2)CC1(C)C [Example 325, 2-(4-acryloyl-3,3-dimethylpiperazin-1-yl)-N-(3,3-difluorocyclobutyl)-5H-pyrrolo[2,3-b]pyrazine-7-carboxamide] | 12.8 nM | 1260 nM
6 | C=CC(=O)N1C[C@H](Nc2cnc3[nH]cc(C(=O)NCC)c3n2)C[C@@H]1COC [Example 262, 2-{[(3R,5R)-1-acryloyl-5-(methoxymethyl)pyrrolidin-3-yl]amino}-N-ethyl-5H-pyrrolo[2,3-b]pyrazine-7-carboxamide] | 11.6 nM | 2180 nM
7 | C=CC(=O)N1CCN(c2cnc3[nH]cc(C(=O)N[C@@H](c4ccccc4)C(C)(C)O)c3n2)CC1(C)C [Example 162, 2-(4-acryloyl-3,3-dimethylpiperazin-1-yl)-N-[(1S)-2-hydroxy-2-methyl-1-phenylpropyl]-5H-pyrrolo[2,3-b]pyrazine-7-carboxamide] | 6.19 nM | 581 nM
8 | C=CC(=O)N1C[C@H](Nc2ncnc3[nH]ccc23)CC[C@@H]1COC (single isomer, unassigned) [Example 92] | 20.9 nM | 2440 nM
9 | C=CC(=O)N1C[C@H](Nc2cnc3[nH]cc(C(=O)NCCOC)c3n2)C[C@H]1COCC [Example 233, 2-{[(3R,5S)-1-acryloyl-5-(ethoxymethyl)pyrrolidin-3-yl]amino}-N-(2-methoxyethyl)-5H-pyrrolo[2,3-b]pyrazine-7-carboxamide] | 6.79 nM | 1100 nM
10 | C=CC(=O)N1CC[C@@H](Nc2cnc3[nH]cc(C(=O)NCC)c3n2)C1 [Example 234, 2-{[(3R)-1-acryloylpyrrolidin-3-yl]amino}-N-ethyl-5H-pyrrolo[2,3-b]pyrazine-7-carboxamide] | 17.9 nM | 2270 nM
11 | C=CC(=O)N1CCC(Oc2cnc3[nH]cc(C(=O)NCCCC)c3c2)CC1 [Example 348, 5-[(1-acryloylpiperidin-4-yl)oxy]-N-butyl-1H-pyrrolo[2,3-b]pyridine-3-carboxamide] | 10.2 nM | 1190 nM
12 | C=CC(=O)N1CCC[C@@H]1COc1cnc2[nH]cc(C(=O)N[C@@H](C)COC)c2n1 (single isomer, unassigned) [Example 9] | 8.86 nM | 1210 nM
13 | C=CC(=O)N1CCC(Nc2cnc3[nH]cc(C(=O)NC[C@H](C)CC(F)(F)F)c3n2)CC1C (stereo partly drawn) [Example 280, 2-[(1-acryloyl-2-methylpiperidin-4-yl)amino]-N-[(2R)-4,4,4-trifluoro-2-methylbutyl]-5H-pyrrolo[2,3-b]pyrazine-7-carboxamide] | 2.49 nM | 501 nM
14 | C=CC(=O)N1CCC(Oc2cnc3[nH]cc(C(=O)NCC4(O)CCC(C)C4)c3n2)CC1 (racemic) [Example 201, Racemic-2-[(1-acryloylpiperidin-4-yl)oxy]-N-[(1-hydroxy-3-methylcyclopentyl)methyl]-5H-pyrrolo[2,3-b]pyrazine-7-carboxamide] | 3.62 nM | 411 nM
15 | C=CC(=O)N1CC(Nc2cnc3[nH]cc(C(=O)NCC(F)(F)F)c3n2)C2(CC2)C1 (centres unmarked) [Example 242, 2-[(5-acryloyl-5-azaspiro[2.4]hept-7-yl)amino]-N-(2,2,2-trifluoroethyl)-5H-pyrrolo[2,3-b]pyrazine-7-carboxamide] | 62.1 nM | > 10000 nM

Continued by falling IC50 [1], values first:

Row | IC50 [1] | IC50 [2] | Structure (SMILES)
16 | 180 nM | > 10000 nM | C=CC(=O)N1C[C@H](Nc2cnc3[nH]cc(C(=O)NCCOC)c3n2)[C@H](C2CC2)C1 [Example 259, 2-{[(3R,4R)-1-acryloyl-4-cyclopropylpyrrolidin-3-yl]amino}-N-(2-methoxyethyl)-5H-pyrrolo[2,3-b]pyrazine-7-carboxamide]
17 | 76.4 nM | 7670 nM | C=CC(=O)N1C[C@H](Nc2ncnc3[nH]ccc23)CC[C@@H]1CNC(C)=O (single isomer, unassigned) [Example 89]
18 | 48.7 nM | 5330 nM | C=CC(=O)N1C[C@@H](C)[C@@H](Nc2cnc3[nH]cc(C(=O)NCC)c3n2)C1 (stereo in doubt) [Example 248, 2-[(1-acryloyl-4-methylpyrrolidin-3-yl)amino]-N-ethyl-5H-pyrrolo[2,3-b]pyrazine-7-carboxamide]
19 | 40.9 nM | 4440 nM | C=CC(=O)N1CCC(Oc2cnc3[nH]cc(C(=O)NCc4ccccc4F)c3c2)CC1 [Example 346, 5-[(1-acryloylpiperidin-4-yl)oxy]-N-(2-fluorobenzyl)-1H-pyrrolo[2,3-b]pyridine-3-carboxamide]
20 | 31.4 nM | 3280 nM | C=CC(=O)N1CC[C@H](COc2cnc3[nH]cc(C(=O)N[C@H](C)COC)c3n2)C1 (single isomer, unassigned) [Example 15]
21 | 24.2 nM | 3080 nM | C=CC(=O)N1CCC(Oc2cnc3[nH]cc(C(=O)NCCC)c3c2)CC1 [Example 347, 5-[(1-acryloylpiperidin-4-yl)oxy]-N-propyl-1H-pyrrolo[2,3-b]pyridine-3-carboxamide]
22 | 14.4 nM | 1840 nM | C=CC(=O)N1CCC(Nc2cnc3[nH]cc(C(=O)N[C@@H]4C[C@H]4C(F)(F)F)c3n2)CC1C (mixture of isomers) [Example 337, Racemic-2-[(1-acryloyl-2-methylpiperidin-4-yl)amino]-N-[(1R,2R)-2-(trifluoromethyl)cyclopropyl]-5H-pyrrolo[2,3-b]pyrazine-7-carboxamide]
23 | 13.7 nM | 1160 nM | C=CC(=O)N1CCC(N(C)c2cnc3[nH]cc(C(=O)NCC)c3n2)C1 (racemic) [Example 28, Racemic-2-[(1-acryloylpyrrolidin-3-yl)(methyl)amino]-N-ethyl-5H-pyrrolo[2,3-b]pyrazine-7-carboxamide]
24 | 6.37 nM | 846 nM | C=CC(=O)N1CC[C@H](Nc2cnc3[nH]cc(C(=O)NCCC(F)(F)F)c3n2)C1 (single isomer, unassigned) [Example 255]
25 | 6.23 nM | 1050 nM | C=CC(=O)N1C[C@H](Nc2cnc3[nH]cc(C(=O)NCCOC)c3n2)C[C@H]1COC [Example 258, 2-{[(3R,5S)-1-acryloyl-5-(methoxymethyl)pyrrolidin-3-yl]amino}-N-(2-methoxyethyl)-5H-pyrrolo[2,3-b]pyrazine-7-carboxamide]
26 | 5.28 nM | 766 nM | C=CC(=O)N1CC[C@@H](COc2cnc3[nH]cc(C(=O)N[C@@H](C)COC)c3n2)C1 (single isomer, unassigned) [Example 12]
27 | 3.78 nM | 757 nM | C=CC(=O)N1C[C@H](Nc2cnc3[nH]cc(C(=O)NCC)c3n2)C[C@H]1COC [Example 239, 2-{[(3R,5S)-1-acryloyl-5-(methoxymethyl)pyrrolidin-3-yl]amino}-N-ethyl-5H-pyrrolo[2,3-b]pyrazine-7-carboxamide]
28 | 2.71 nM | 499 nM | C=CC(=O)N1CCN(c2cnc3[nH]cc(C(=O)N[C@@H]4C[C@H]4C(F)(F)F)c3n2)CC1 [Example 287, 2-(4-acryloylpiperazin-1-yl)-N-[(1R,2R)-2-(trifluoromethyl)cyclopropyl]-5H-pyrrolo[2,3-b]pyrazine-7-carboxamide]
